Experimental data as given in US20260115177A1, “MEDICINAL PRODUCTS AND METHODS FOR THE ALLEVIATION OF CANCER IMMUNOTHERA-PY-ASSOCIATED CYTOKINE RELEASE SYNDROME” (POOLBEG PHARMA (UK) LIMITED, priority 2023, published 2026).

Key:
CAR T cells [1] = experiment: T cell exhaustion markers TIM3 and LAG3 on CAR T cells in co-culture (flow cytometry); assay type: cell-based, human; conditions: CAR T:tumour cell co-culture, concentrations of Table 2; for number of LAG3+ CAR T cells: Ralimetinib 5 μM results to be disregarded
Protocol: (§1) UR-13870, Ralimetinib or Acumapimod are each added to a culture of CD19+ cancer cells (using a micropipette to transfer the correct volume to achieve the desired final concentration in Table 2).
(§2) CAR T cells are then added to the same culture 5-10 minutes later. In brief, CAR T cell concentrations per ml are determined and used to aliquot the desired number of CAR T cells into the culture to achieve the described 1:1 CAR T to cancer cell ratio.
(§3) The co-culture containing CAR T cells and tumour cells is swirled gently to ensure homogenous dispersion of cells throughout the vessel. The resultant co-culture is incubated for 24 to 96 hours in a closed incubator at 37° C. with 5% CO2 and a suitably humid atmosphere.
Both T cell surface markers T cell immunoglobulin and mucin domain-containing protein 3 (TIM3/CD366) and Lymphocyte Activation Gene 3 (LAG3/CD223) are associated with T cell exhaustion and disease progression during immunotherapy treatment. Advantageously, all of UR-13870, Ralimetinib and Acumapimod reduce both the number of TIM3+ CAR T cells, and the number of LAG3+ CAR T cells. […] For LAG3+, the results for Ralimetinib at a 5 μM concentration appear to have been affected by experimental failure, and these may be disregarded accordingly.

THP-1 monocytes = experiment: IL-6 ELISA of THP-1 monocytes treated with sCAR; assay type: cell-based, human; conditions: sCAR stimulation, 24 hours; concentrations of Table 2
Protocol: In Example 3 below, sCAR (or smCAR) is added using a micropipette to an in vitro culture of monocyte cells of the human monocytic cell line THP-1, available from the American Type Culture Collection. The culture is incubated in a closed incubator at 37° C. with 5% CO2 and a suitably humid atmosphere for approximately 24 hours, following which cytokine release is observed. p38 MAPK activation and cytokine release are confirmed by evaluation of the presence of IL-6 in THP-1 cells using an enzyme-linked immunosorbent assay (ELISA; for which a kit is suitably obtainable from Thermo Fisher Scientific of Kingfisher Dr, Swindon SN3 5BZ, UK).
(i) Monocytes sCAR (or smCAR), produced as described in Example 1 above, is added to a monoculture of THP-1 monocytes in the presence of UR-13870, Ralimetinib or Acumapimod at each of the concentrations shown in Table 2 above at 37° C., 5% CO2 and a suitably humid environment for 24 hours.
Supernatant levels of IL-6 from the THP-1 monocyte monoculture with sCAR (or smCAR) are determined by ELISA.

HUVEC endothelial cells [2] = experiment: QPCR of ICAM1 in HUVEC cells treated with sCART-mono supernatant; assay type: cell-based, human; conditions: 24 hours
Protocol: (§4) With reference to FIG. 13 of the accompanying drawings, a co-culture (100) is established using a standard cell culture transwell dish, including a first compartment (101), containing CAR T cells and cancer cells (at a 1:1 ratio), which is separated from a second compartment (102), containing monocytes, by a semi-permeable membrane (103) composed of tissue-culture treated polyethylene terephthalate with a 0.4 μm pore size.
(§5) Each of UR-13870, Acumapimod and Ralimetinib are administered to the co-culture following a procedure analogous to that described in Example 2 above (at the concentrations as shown in Table 2 above).
(§6) The co-culture is incubated at 37° C., 5% CO2 and a suitably humid environment for 24 hours. On completion, the transwell insert is removed and supernatant is isolated. Cells and debris are removed from the supernatant by exposing the container to a centripetal force of 400 G and gently pipetting the supernatant into a new container without disturbing the cell pellet at the bottom of the previous container.
(§7) Prior to adding the p38 inhibitors and sCART-mono, endothelial cells are incubated overnight at 37° C. and 5% CO2 in a suitably humid environment to allow the cells to adhere fully to the tissue culture dish.
Reduced endothelial cell activation is evidenced by reduced ICAM1 expression in response to treatment with UR-13870, Acumapimod and Ralimetinib.

CAR T cells [3] = experiment: TNFα immunosorbent assay of CAR T:tumour cell co-culture supernatant; assay type: cell-based, human
Protocol: as §1, §2, §3
Cytokine release by T cells is also quantified by TNFα enzyme-based immunosorbent assays of co-culture supernatant, as shown in FIG. 9. Ralimetinib and Acumapimod reduced TNF-α secretion following treatment. Data for UR-13870 were discarded due to failures in the UR-13870 experimental procedure.

HUVEC endothelial cells [4] = experiment: IL-6 and IL-8 ELISA of HUVEC cells treated with sCART-mono supernatant; assay type: cell-based, human; conditions: 24 hr, concentrations of Table 2
Protocol: as §4, §5, §6, §7
Supernatant levels of IL-6 and IL-8 are determined following 24 hr treatment with sCART-mono and the p38 MAPK inhibitors by ELISA.

CAR T cells [5] = experiment: CAR T cell proliferation in CAR T cell:cancer cell co-culture (Cell Trace Violet, flow cytometry); assay type: cell-based, human; conditions: CAR T:tumour cell co-culture 1:1; concentrations of Table 2
Protocol: CAR T cell proliferation is confirmed by Cell Trace™ Violet staining of CAR T cells (staining agent having been added prior to addition of the T cells to the co-cultures with tumour cells). Staining may be observed, following co-culture, via flow cytometry.
as §1, §2, §3

CD19+ cancer cells = experiment: CAR T cell killing of tumour cells in 24-hour co-culture (flow cytometry); assay type: cell-based, human; conditions: high dose only, CAR T to cancer cell ratio 1:1
From the text: Raji immortalized human B cell line CD19-expressing cancer cells (available from the American Type Culture Collection) are acquired and stable transfection of the Raji cell line is generated with an mCherry reporter protein to facilitate identification of the cancer cells within co-cultures by detection of the mCherry protein fluorescence by flow cytometry.
as §1, §2, §3
Tumour cell death is observed by examining relative CAR T cell:tumour cell numbers by flow cytometry following 24 hour co-culture, as shown in FIG. 7.

HUVEC endothelial cells [6] = experiment: IL-6 and IL-8 ELISA of HUVEC endothelial cells treated with sCAR; assay type: cell-based, human; conditions: sCAR stimulation, 24 hours; concentrations of Table 2
Protocol: (§8) In like manner and also in Example 3 below, sCAR (or smCAR) is added to endothelial (HUVEC) cells, available from the American Type Culture Collection, and using an equivalent protocol to the treatment of THP-1 cells (but with individually optimised conditions, such as the concentration of sCAR used), following which IL-6 release and IL-8 release are observed. Pro-inflammatory cytokines IL-6 and IL-8 are measured using an enzyme-linked immunosorbent assay (ELISA) and IL-6, ICAM1 and VCAM1 are measured by quantitative PCR (QPCR, for which a kit is suitably obtainable from Thermo Fisher Scientific of Kingfisher Dr, Swindon SN3 5BZ, UK).
(§9) sCAR (or smCAR), produced as described in Example 1 above, is added to a monoculture of HUVEC endothelial cells in the presence of UR-13870, Ralimetinib or Acumapimod at each of the concentrations shown in Table 2 above, at 37° C., 5% CO2 and a suitably humid environment for 24 hours.
Supernatant levels of IL-6 and IL-8 from the HUVEC endothelial cell monoculture with sCAR (or smCAR) are determined by ELISA.

HUVEC endothelial cells [7] = experiment: QPCR of VCAM1, ICAM1 and IL-6 in HUVEC cells treated with sCAR; assay type: cell-based, human; conditions: 24 hours
Protocol: as §8, §9

CAR T cells [8] = conditions: in vitro expansion; inhibitor washed out before adoptive transfer; cited from earlier work

| Compound | number of TIM3+ CAR T cells (CAR T cells [1]) | number of LAG3+ CAR T cells (CAR T cells [1]) | IL-6 secretion by THP-1 monocytes (THP-1 monocytes) | ICAM1 expression (endothelial cell activation) (HUVEC endothelial cells [2]) | TNF-α secretion (co-culture supernatant) (CAR T cells [3]) | IL-6 levels in supernatant (HUVEC endothelial cells [4]) | IL-8 levels in supernatant (HUVEC endothelial cells [4]) | CAR T cell proliferation (Cell Trace Violet staining) (CAR T cells [5]) | CAR T cell-induced cancer cell death (percentage of residual tumour cells in the co-culture) (CD19+ cancer cells) | IL-6 secretion by HUVEC cells (HUVEC endothelial cells [6]) | IL-8 supernatant level, HUVEC cells (HUVEC endothelial cells [6]) | ICAM1 mRNA levels (HUVEC endothelial cells [7]) | IL-6 mRNA levels (HUVEC endothelial cells [7]) | VCAM1 mRNA levels (HUVEC endothelial cells [7]) | CAR T cell phenotypes (CAR T cells [8]) |
| --- | --- | --- | --- | --- | --- | --- | --- | --- | --- | --- | --- | --- | --- | --- | --- |
| Cc1ccc(C(=O)NC2CC2)cc1-n1ncc(C(=O)c2cccc(C#N)c2)c1N [Acumapimod, 3-[5-amino-4-(3-cyanobenzoyl)pyrazol-1-yl]-N-cyclopropyl-4-methylbenzamide] | reduce | reduce | significantly reduce | reduced | reduced | reduced | (albeit non-significant) downward trend | maintain CAR T cell proliferation | maintain CAR T cell-induced cancer cell death | significantly reduce | reduced | significantly reduce | significantly reduce | reduced, albeit non-significantly |  |
| Cc1ccc(-n2nc(C(C)(C)C)cc2NC(=O)Nc2ccc(OCCN3CCOCC3)c3ccccc23)cc1 [Doramapimod/BIRB796] |  |  |  |  |  |  |  |  |  |  |  |  |  |  | promote desirable CAR T cell phenotypes in vitro |
| CC(C)(C)Cn1c(N)nc2ccc(-c3[nH]c(C(C)(C)C)nc3-c3ccc(F)cc3)nc21 [Ralimetinib, 5-[2-tert-Butyl-4-(4-fluorophenyl)-1H-imidazol-5-yl]-3-(2,2-dimethylpropyl)imidazo[4,5-b]pyridin-2-amine] | reduce | reduce | significantly reduce | reduced | reduced | reduced | (albeit non-significant) downward trend | maintain CAR T cell proliferation | maintain CAR T cell-induced cancer cell death | significantly reduce | reduced | significantly reduce | significantly reduce | reduced, albeit non-significantly |  |
